24 molecules from patent US4521422A, “Aryl and heteroaryl[7-(aryl and heteroaryl)pyrazolo[1,5-a]pyrimidin-3-yl]methanones” (American Cyanamid Company, priority 1984, dated 1985) can be followed below.

As a reminder, the % Inhibition is the drop in the measured response relative to a control, in per cent.

Test [1] concerns Nonconditioned Passive Avoidance in Rats. Description: Nonconditioned passive avoidance (conflict) test in rats. The test is classed as in vivo, rat (Wistar). Also on record: key: Active: considered active if the number of shocks received by the test group is significantly higher than the control group by the Mann-Witney U test. The conditions noted are these: oral or i.p. The procedure:
Another test which has been used to assess anti-anxiety effects is a nonconditioned passive avoidance procedure described by [J. R. Vogel, B. Beer and D. E. Clody, "A Simple and Reliable Conflict Procedure for Testing Anti-Anxiety Agents", Psychopharmacologia, 21, 1-7 (1971)]. A conflict situation is induced in rats by a modification of this method.
Groups of 6 naive, Wistar strain rats, weighing 200-240 g each were deprived of water for 48 hours and food for 24 hours. The test compounds were administered in single or graded, oral or intraperitoneal doses, suspended in a 2% starch vehicle containing 0.5% v/v polyethylene glycol and one drop of polysorbate 80. Control animals received the vehicle alone. At 30 to 60 minutes each rat was placed in an individual plexiglass chamber. Water was available ad libitum from a tap located in the rear of the chamber. A 0.7 milliampere DC shocking current was established between the stainless steel grid floor and the tap. After 20 licks of non-shocked drinking, a shock was delivered for 2 seconds and then further shocks were delivered on a ratio of one shock for 2 seconds for every 20 licks. This was continued for a total of 3 minutes. The number of shocks taken by each rat during the 3 minute interval was recorded and compared to a control group. […]

Test [2] relates to Brain-Specific Receptors of Rats. Description: Inhibition of the binding of 3H-benzodiazepine to brain-specific receptors of rats. Also on record: species or system rat (Wistar). The conditions noted are these: 3H-diazepam 1.5 nM or 3H-flunitrazepam 1.0 nM; rat cortex P2 fraction; test concentration not given.
The test system of test [3] is Clonic Seizures Caused by Pentylenetetrazole in Rats. Description: Protection against clonic seizures caused by pentylenetetrazole in rats. The class given is in vivo. The conditions noted are these: Rattus norvegicus, oral or i.p., read-out: % of Rats Protected; for responders at 25 mg/kg: pentylenetetrazole 23 mg/kg i.v. at 30 or 60 min. The method, boiled down:
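Rats (at least 4 per group) given single or graded oral or intraperitoneal doses in starch/PEG/Polysorbate 80 vehicle. After 30 or 60 min, pentylenetetrazole 23 mg/kg i.v. was given, a dose expected to induce clonic seizures in 99% of unprotected rats. Protection from convulsions was scored.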

Setting [4] is: pentylenetetrazole 23 mg/kg i.v.

Consider `O=C(c1ccccn1)c1cnn2c(-c3cccnc3)ccnc12` [2-Pyridinyl[7-(3-pyridinyl)pyrazolo[1,5-a]pyrimidin-3-yl]methanone], for which the “Result (nonconditioned passive avoidance)” value (shortened to “Result”) in test [1] (dose 25.0 mg/kg) is on record as “Active”. Also, the “% Inhibition” value in test [2] turned out to be 98%. Further, in test [3], the responders at 25 mg/kg turned out to be 75%.
As for `O=C(c1ccco1)c1cnn2c(-c3ccncc3)ccnc12` [2-furanyl[7-(4-pyridinyl)pyrazolo[1,5-a]pyrimidin-3-yl]methanone], the “Result” value in test [1] (dose 25.0 mg/kg) is “Active”. In test [2], the “% Inhibition” value came out at 19%. For the same molecule, in test [3], the responders at 25 mg/kg amounted to 25%.
Consider `O=C(c1cccs1)c1cnn2c(-c3cccc(C(F)(F)F)c3)ccnc12` [2-thienyl[7-[3-(trifluoromethyl)phenyl]pyrazolo[1,5-a]pyrimidin-3-yl]methanone], for which, in test [1] (dose 25.0 mg/kg), the “Result” value is listed as “Active”. Also, the “% Inhibition” value in test [2] amounted to 99%. In addition, in test [3], the responders at 25 mg/kg was 100%.
As for `O=C(c1ccoc1)c1cnn2c(-c3cccnc3)ccnc12` [3-furanyl[7-(3-pyridinyl)pyrazolo[1,5-a]pyrimidin-3-yl]methanone], the “Result” value in test [1] (dose 25.0 mg/kg) is on record as “Active”. Besides, the “% Inhibition” value in test [2] is 77%. In addition, the responders at 25 mg/kg in test [3] came out at 100%.
Regarding `O=C(c1ccncc1)c1cnn2c(-c3ccncc3)ccnc12` [4-pyridinyl[7-(4-pyridinyl)pyrazolo[1,5-a]pyrimidin-3-yl]methanone], in test [1] (dose 25.0 mg/kg), the “Result” value is “Active”. Besides, the “% Inhibition” value in test [2] is listed as 11%.
Regarding `COc1ccc(C(=O)c2cnn3c(-c4cccnc4)ccnc23)cc1OC` [(3,4-dimethoxyphenyl)[7-(3-pyridinyl)pyrazolo[1,5-a]pyrimidin-3-yl]methanone], the “Result” value in test [1] (dose 25.0 mg/kg) is listed as “Active”. For the same molecule, in test [2], the “% Inhibition” value came out at 75%. In test [3], the responders at 25 mg/kg is 87%.
Taken in the same sequence, the figures for `O=C(c1cccc(F)c1)c1cnn2c(-c3cccnc3)ccnc12` [(3-fluorophenyl)[7-(3-pyridinyl)pyrazolo[1,5-a]pyrimidin-3-yl]methanone] were “Active”, 20% and 100%.
For the molecule `Cc1cccc(C(=O)c2cnn3c(-c4cccnc4)ccnc23)c1` [(3-methylphenyl)[7-(3-pyridinyl)pyrazolo[1,5-a]pyrimidin-3-yl]methanone], the “Result” value in test [1] (dose 25.0 mg/kg) was “Active”. In addition, the “% Inhibition” value in test [2] is reported as 70%. In addition, the responders at 25 mg/kg in test [3] is 100%.
With `O=C(c1ccc(Cl)cc1)c1cnn2c(-c3cccc(C(F)(F)F)c3)ccnc12` [(4-chlorophenyl)[7-[3-(trifluoromethyl)phenyl]pyrazolo[1,5-a]pyrimidin-3-yl]methanone], in test [1] (dose 25.0 mg/kg), the “Result” value was “Active”. The “% Inhibition” value in test [2] was 81%.
Take `O=C(c1ccc(F)cc1)c1cnn2c(-c3ccc(F)cc3)ccnc12` [(4-fluorophenyl)[7-(4-fluorophenyl)pyrazolo[1,5-a]pyrimidin-3-yl]methanone]: the “Result” value in test [1] (dose 25.0 mg/kg) is reported as “Active”. Also, in test [2], the “% Inhibition” value was determined as 34%. Also, the responders at 25 mg/kg in test [3] stood at 75%.
As for `Cc1ccc(C(=O)c2cnn3c(-c4cccc(C(F)(F)F)c4)ccnc23)cc1` [(4-methylphenyl)[7-[3-(trifluoromethyl)phenyl]pyrazolo[1,5-a]pyrimidin-3-yl]methanone], the “Result” value in test [1] (dose 12.5 mg/kg) is on record as “Active”. In addition, the responders at 25 mg/kg in test [3] came out at 50%.
For `CCN(C(C)=O)c1cccc(-c2ccnc3c(C(=O)c4ccco4)cnn23)c1` [N--ethyl-N--[3-[3-(2-furanylcarbonyl)pyrazolo[1,5-a]pyrimidin-7-yl]phenyl]acetamide], the “Result” value in test [1] (dose 12.5 mg/kg) is on record as “Active”. Further, the responders at 12.5 mg/kg in test [3] (setting [4]) worked out at 100%.
With `CCN(C(C)=O)c1cccc(-c2ccnc3c(C(=O)c4ccccc4)cnn23)c1` [N-[3-(3-Benzoylpyrazolo[1,5-a]pyrimidin-7-yl)phenyl]-N-ethylacetamide], the “Result” value in test [1] (dose 25.0 mg/kg) is listed as “Active”. For the same molecule, in test [3] (dose 6.2 mg/kg, pentylenetetrazole 23 mg/kg i.v.), the responders at 6.2 mg/kg came to 100%.
Take `CC(=O)N(C)c1cccc(-c2ccnc3c(C(=O)c4ccccc4)cnn23)c1` [N-[3-(3-Benzoylpyrazolo[1,5-a]pyrimidin-7-yl)phenyl]-N-methylacetamide]: the “Result” value in test [1] (dose 3.1 mg/kg) was “Active”. The responders at 0.8 mg/kg in test [3] (setting [4]) was determined as 75%.
Turning to `CCC(=O)N(C)c1cccc(-c2ccnc3c(C(=O)c4ccccc4)cnn23)c1` [N-[3-(3-Benzoylpyrazolo[1,5-a]pyrimidin-7-yl)phenyl]-N-methylpropanamide], the “Result” value in test [1] (dose 1.5 mg/kg) is on record as “Active”. Further, in test [3] (setting [4]), the responders at 0.8 mg/kg was 100%.
Consider `CCC(=O)N(CC)c1cccc(-c2ccnc3c(C(=O)c4ccccc4)cnn23)c1` [N-[3-(3-Benzoylpyrazolo[1,5-a]pyrimidin-7-yl)phenyl]N-ethylpropanamide], for which, in test [1] (dose 12.5 mg/kg), the “Result” value is “Active”. In addition, the responders at 12.5 mg/kg in test [3] (setting [4]) amounted to 100%.
`CC(=O)N(C)c1cccc(-c2ccnc3c(C(=O)c4ccco4)cnn23)c1` [N-[3-[3-(2-Furancarbonyl)pyrazolo[1,5-a]pyrimidin-7-yl]phenyl]-N-methylacetamide]: the “Result” value in test [1] (dose 25.0 mg/kg) is on record as “Active”. The responders at 25 mg/kg in test [3] turned out to be 100%.
On to `CCC(=O)N(C)c1cccc(-c2ccnc3c(C(=O)c4ccco4)cnn23)c1` [N-[3-[3-(2-Furanylcarbonyl)pyrazolo[1,5-a]pyrimidin-7-yl]phenyl]-N-methylpropanamide], for which, in test [1] (dose 25.0 mg/kg), the “Result” value was “Active”. Further, the responders at 6 mg/kg in test [3] (dose 6.0 mg/kg, pentylenetetrazole 23 mg/kg i.v.) was determined as 100%.
In the case of `CN(C)c1ccc(C(=O)c2cnn3c(-c4cccnc4)ccnc23)cc1` [[4-(dimethylamino)phenyl][7-(3-pyridinyl)pyrazolo[1,5-a]pyrimidin-3-yl]methanone], the “Result” value in test [1] (dose 25.0 mg/kg) was “Active”. The responders at 25 mg/kg in test [3] came out at 100%.
`CN(C)c1ccc(C(=O)c2cnn3c(-c4cccc(C(F)(F)F)c4)ccnc23)cc1` [[4-(dimethylamino)phenyl][7-[3-(trifluoromethyl)phenyl]pyrazolo[1,5-a]pyrimidin-3-yl]methanone]: in test [1] (dose 25.0 mg/kg), the “Result” value is given as “Active”. The responders at 25 mg/kg in test [3] is 100%.
`O=C(c1ccsc1)c1cnn2c(-c3cccnc3)ccnc12` [[7-(3-pyridinyl)pyrazolo[1,5-a]pyrimidin-3-yl]-3-thienylmethanone]: the “Result” value in test [1] (dose 25.0 mg/kg) was “Active”. In test [3], the responders at 25 mg/kg turned out to be 50%.
Turning to `O=C(c1cccc(C(F)(F)F)c1)c1cnn2c(-c3cccnc3)ccnc12` [[7-(3-pyridinyl)pyrazolo[1,5-a]pyrimidin-3-yl][3-(trifluoromethyl)phenyl]methanone], the “Result” value in test [1] (dose 25.0 mg/kg) was “Active”. Besides, the “% Inhibition” value in test [2] was determined as 38%.
As to `CCNc1cccc(-c2ccnc3c(C(=O)c4ccco4)cnn23)c1` [[7-[3-(Ethylamino)phenyl]pyrazolo[1,5-a]pyrimidin-3-yl]-2-furanylmethanone], the “Result” value in test [1] (dose 25.0 mg/kg) is “Active”. Further, the responders at 25 mg/kg in test [3] was 100%.
For the molecule `CCNc1cccc(-c2ccnc3c(C(=O)c4ccccc4)cnn23)c1` [[7-[3-(Ethylamino)phenyl]pyrazolo[1,5-a]pyrimidin-3-yl]phenylmethanone], the “Result” value in test [1] (dose 25.0 mg/kg) is “Active”. Further, in test [3], the responders at 25 mg/kg was found to be 100%.
